pIC50, pKi: −log10 of the molar value.
Columns and labels:
[1] = molecular target: T1, Alpha-1B adrenergic receptor (Rattus norvegicus, UniProt P15823); assay: DRUGMATRIX: Alpha-1B adrenergic receptor radioligand binding (ligand: prazosin); format: cell membranes, Wistar, Liver, Membrane; settings: Not Active = under 50% inhibition at 10 µM
T1 sequence (P15823 whole entry): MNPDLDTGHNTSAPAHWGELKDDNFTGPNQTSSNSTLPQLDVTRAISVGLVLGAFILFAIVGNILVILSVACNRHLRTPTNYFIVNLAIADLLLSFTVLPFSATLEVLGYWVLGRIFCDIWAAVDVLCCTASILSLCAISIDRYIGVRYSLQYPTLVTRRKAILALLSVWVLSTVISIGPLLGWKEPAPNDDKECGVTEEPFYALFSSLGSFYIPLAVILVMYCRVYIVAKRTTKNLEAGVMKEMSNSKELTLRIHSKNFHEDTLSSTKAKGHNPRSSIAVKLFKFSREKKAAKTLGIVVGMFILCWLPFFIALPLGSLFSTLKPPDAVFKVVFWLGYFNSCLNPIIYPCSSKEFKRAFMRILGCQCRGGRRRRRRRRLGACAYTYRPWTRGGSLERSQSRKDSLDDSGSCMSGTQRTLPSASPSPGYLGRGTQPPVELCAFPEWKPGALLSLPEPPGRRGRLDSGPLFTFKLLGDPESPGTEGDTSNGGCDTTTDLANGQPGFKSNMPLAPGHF

[2] = molecular target: T2, Alpha-1D adrenergic receptor (Homo sapiens, UniProt P25100); format: cell membranes, HEK293, Membrane; settings: for IC50: hek293; for all read-outs here: in other assays of this panel Not Active means under 50% inhibition at 10 µM
T2 sequence (P25100 whole entry): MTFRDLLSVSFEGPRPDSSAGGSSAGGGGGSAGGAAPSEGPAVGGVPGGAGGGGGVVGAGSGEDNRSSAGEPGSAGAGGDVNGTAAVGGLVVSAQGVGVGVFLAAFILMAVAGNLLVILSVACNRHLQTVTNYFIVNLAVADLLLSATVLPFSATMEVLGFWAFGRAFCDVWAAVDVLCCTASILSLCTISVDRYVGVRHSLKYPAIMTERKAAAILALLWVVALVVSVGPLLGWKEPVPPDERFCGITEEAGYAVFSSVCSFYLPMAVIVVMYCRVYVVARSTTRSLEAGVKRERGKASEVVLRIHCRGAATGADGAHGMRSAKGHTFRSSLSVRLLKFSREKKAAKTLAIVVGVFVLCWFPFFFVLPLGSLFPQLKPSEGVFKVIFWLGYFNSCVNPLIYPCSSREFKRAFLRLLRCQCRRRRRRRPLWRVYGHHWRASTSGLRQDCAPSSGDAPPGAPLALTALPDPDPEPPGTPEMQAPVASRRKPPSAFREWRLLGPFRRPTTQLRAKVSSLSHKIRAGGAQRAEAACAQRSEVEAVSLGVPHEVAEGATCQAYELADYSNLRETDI

[3] = molecular target: Beta-3 adrenergic receptor (Homo sapiens, UniProt P13945); assay: DRUGMATRIX: Adrenergic beta3 radioligand binding (ligand: [125I] Cyanopindolol); format: cell membranes, HEK293, Membrane; settings: hek293; Not Active = under 50% inhibition at 10 µM
[4] = molecular target: 5-hydroxytryptamine receptor 2B (Homo sapiens, UniProt P41595); format: cell membranes, CHO-K1, Membrane; settings: for IC50: cho-k1; for all read-outs here: in other assays of this panel Not Active means under 50% inhibition at 10 µM
Vasopressin V1a receptor = Vasopressin V1a receptor (Homo sapiens, UniProt P37288); format: cell membranes, Membrane; settings: hek293; note: in other assays of this panel Not Active means under 50% inhibition at 10 µM
[5] = DRUGMATRIX: GABAA, Chloride Channel, TBOB radioligand binding (ligand: [3H] TBOB); format: cell membranes, Rattus norvegicus, Wistar, Cerebral cortex, Membrane; settings: Not Active = under 50% inhibition at 10 µM
[6] = DRUGMATRIX: Glutamate, AMPA radioligand binding (ligand: [3H] AMPA); format: cell membranes, Rattus norvegicus, Wistar, Cerebral cortex, Membrane; settings: Not Active = under 50% inhibition at 10 µM
[7] = molecular target: T3, Neuropeptide Y receptor type 2 (Homo sapiens, UniProt P49146); format: cell membranes, Membrane; settings: kan-ts; note: in other assays of this panel Not Active means under 50% inhibition at 10 µM
T3 sequence (P49146 whole entry): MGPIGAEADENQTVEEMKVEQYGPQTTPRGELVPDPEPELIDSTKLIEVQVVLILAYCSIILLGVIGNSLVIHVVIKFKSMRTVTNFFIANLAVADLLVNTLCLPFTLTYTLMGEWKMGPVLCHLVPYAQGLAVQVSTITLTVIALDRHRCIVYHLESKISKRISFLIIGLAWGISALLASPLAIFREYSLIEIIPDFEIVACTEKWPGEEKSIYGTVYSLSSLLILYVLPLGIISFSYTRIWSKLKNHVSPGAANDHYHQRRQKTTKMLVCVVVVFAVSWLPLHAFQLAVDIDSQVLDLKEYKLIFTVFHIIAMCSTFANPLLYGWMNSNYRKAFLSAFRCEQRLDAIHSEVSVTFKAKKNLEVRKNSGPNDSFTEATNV

[8] = molecular target: Mitogen-activated protein kinase 3 (Homo sapiens, UniProt P27361); assay: DRUGMATRIX: Protein Serine/Threonine Kinase, ERK1 enzyme inhibition (substrate: Myelin Basic Protein); design: species or system Escherichia coli; settings: Not Active = under 50% inhibition at 10 µM
[9] = molecular target: Receptor tyrosine-protein kinase erbB-2 (Homo sapiens, UniProt P04626); assay: biochemical; format: cell-based, Insect cells; settings: insect cells
[10] = molecular target: Tyrosine-protein kinase Lck (Homo sapiens, UniProt P06239); assay: DRUGMATRIX: Protein Tyrosine Kinase, LCK enzyme inhibition (substrate: Poly(Glu:Tyr)); format: cell-based, Insect cells; settings: Not Active = under 50% inhibition at 10 µM; for IC50: insect cells
Glucocorticoid receptor = molecular target: T4, Glucocorticoid receptor (Homo sapiens, UniProt P04150); settings: hela s3; note: in other assays of this panel Not Active means under 50% inhibition at 10 µM
T4 sequence (P04150 whole entry): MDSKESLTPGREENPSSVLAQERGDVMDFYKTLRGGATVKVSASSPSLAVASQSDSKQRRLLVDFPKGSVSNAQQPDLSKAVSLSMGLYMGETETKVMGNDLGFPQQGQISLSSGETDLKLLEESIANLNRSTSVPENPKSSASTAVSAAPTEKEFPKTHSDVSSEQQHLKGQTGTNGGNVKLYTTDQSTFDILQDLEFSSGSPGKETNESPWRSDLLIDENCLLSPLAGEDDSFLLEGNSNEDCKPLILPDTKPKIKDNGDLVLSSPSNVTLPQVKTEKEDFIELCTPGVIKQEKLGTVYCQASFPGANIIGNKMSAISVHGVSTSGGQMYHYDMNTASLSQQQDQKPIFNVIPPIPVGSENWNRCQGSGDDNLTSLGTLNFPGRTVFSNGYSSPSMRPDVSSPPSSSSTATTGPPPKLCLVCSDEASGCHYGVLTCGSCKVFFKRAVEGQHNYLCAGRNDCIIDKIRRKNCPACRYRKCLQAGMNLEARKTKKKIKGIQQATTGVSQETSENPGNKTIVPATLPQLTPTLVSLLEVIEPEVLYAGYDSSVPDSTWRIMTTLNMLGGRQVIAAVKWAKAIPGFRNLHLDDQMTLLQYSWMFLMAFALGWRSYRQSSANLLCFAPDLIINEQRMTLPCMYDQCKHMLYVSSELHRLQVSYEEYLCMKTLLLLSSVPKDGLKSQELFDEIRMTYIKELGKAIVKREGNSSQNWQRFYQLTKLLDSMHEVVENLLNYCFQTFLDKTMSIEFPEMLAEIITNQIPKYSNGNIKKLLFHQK

Receptor tyrosine-protein kinase erbB-2, sequence (P04626 whole entry): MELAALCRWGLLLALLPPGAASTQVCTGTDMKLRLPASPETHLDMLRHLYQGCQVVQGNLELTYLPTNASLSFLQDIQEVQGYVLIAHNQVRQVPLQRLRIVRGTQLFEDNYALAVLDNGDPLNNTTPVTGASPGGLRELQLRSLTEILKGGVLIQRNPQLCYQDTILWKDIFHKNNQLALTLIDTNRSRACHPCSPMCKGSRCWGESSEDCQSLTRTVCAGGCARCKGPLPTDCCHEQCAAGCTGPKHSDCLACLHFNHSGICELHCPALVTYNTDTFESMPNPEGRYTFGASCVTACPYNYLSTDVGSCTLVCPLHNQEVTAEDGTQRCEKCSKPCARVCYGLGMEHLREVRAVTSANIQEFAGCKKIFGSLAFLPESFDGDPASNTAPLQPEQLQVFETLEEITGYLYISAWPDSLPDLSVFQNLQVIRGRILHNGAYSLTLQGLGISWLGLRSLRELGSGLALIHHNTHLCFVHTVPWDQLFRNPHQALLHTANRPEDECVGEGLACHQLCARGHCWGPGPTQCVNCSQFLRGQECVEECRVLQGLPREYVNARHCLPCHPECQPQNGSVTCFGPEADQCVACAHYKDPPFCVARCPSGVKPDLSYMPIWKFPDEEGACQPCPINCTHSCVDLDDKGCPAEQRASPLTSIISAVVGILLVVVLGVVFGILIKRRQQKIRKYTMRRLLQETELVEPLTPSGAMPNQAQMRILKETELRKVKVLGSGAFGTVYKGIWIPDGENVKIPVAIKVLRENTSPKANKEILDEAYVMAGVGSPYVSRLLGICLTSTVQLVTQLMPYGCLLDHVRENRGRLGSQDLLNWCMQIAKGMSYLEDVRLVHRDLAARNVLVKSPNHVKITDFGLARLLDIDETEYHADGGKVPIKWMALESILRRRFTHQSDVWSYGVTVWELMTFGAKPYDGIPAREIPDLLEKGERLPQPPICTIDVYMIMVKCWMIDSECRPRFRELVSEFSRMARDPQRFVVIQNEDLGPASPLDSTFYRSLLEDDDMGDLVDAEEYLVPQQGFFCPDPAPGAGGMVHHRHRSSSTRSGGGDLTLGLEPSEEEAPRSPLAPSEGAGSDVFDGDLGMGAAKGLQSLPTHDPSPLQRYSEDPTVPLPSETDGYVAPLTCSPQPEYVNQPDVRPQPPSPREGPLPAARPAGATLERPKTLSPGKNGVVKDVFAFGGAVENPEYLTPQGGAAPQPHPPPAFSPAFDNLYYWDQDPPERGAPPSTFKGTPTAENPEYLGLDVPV
5-hydroxytryptamine receptor 2B, sequence (P41595 whole entry): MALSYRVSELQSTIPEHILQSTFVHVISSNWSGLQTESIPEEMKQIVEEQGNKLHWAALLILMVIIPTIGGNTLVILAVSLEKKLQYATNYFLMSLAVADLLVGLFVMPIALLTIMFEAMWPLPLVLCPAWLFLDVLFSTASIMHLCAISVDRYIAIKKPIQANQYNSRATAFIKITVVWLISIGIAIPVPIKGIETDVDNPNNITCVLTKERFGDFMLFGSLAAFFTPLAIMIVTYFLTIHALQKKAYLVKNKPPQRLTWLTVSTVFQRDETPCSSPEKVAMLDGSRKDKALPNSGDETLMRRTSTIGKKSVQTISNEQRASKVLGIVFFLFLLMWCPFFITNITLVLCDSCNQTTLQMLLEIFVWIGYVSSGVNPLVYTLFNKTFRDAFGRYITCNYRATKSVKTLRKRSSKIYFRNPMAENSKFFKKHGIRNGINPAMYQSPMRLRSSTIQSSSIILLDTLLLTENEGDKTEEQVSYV
Tyrosine-protein kinase Lck, sequence (P06239 whole entry): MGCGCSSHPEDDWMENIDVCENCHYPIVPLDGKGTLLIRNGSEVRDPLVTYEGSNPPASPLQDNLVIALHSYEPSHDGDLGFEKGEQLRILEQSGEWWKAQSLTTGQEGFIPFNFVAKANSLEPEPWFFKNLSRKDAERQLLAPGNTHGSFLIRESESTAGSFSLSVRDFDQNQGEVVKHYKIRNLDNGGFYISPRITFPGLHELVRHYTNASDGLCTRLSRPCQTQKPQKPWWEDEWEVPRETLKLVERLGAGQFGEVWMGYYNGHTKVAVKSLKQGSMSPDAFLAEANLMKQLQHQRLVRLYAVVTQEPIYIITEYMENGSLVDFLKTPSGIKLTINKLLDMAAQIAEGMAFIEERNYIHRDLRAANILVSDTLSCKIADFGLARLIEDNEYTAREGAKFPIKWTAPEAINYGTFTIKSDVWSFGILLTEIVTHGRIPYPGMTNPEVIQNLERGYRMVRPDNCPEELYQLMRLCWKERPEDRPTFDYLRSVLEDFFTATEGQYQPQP
Vasopressin V1a receptor, sequence (P37288 whole entry): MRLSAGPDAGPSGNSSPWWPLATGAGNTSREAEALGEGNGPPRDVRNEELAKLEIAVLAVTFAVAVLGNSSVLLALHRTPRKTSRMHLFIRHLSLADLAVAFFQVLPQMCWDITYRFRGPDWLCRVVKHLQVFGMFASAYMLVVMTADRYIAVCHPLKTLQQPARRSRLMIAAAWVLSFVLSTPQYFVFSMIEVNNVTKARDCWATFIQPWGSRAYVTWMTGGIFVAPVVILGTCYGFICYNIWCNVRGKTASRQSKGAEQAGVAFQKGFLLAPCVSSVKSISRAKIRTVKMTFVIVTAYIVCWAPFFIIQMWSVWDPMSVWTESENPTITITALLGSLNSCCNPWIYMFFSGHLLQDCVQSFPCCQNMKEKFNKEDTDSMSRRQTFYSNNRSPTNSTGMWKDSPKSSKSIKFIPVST
Beta-3 adrenergic receptor, sequence (P13945 whole entry): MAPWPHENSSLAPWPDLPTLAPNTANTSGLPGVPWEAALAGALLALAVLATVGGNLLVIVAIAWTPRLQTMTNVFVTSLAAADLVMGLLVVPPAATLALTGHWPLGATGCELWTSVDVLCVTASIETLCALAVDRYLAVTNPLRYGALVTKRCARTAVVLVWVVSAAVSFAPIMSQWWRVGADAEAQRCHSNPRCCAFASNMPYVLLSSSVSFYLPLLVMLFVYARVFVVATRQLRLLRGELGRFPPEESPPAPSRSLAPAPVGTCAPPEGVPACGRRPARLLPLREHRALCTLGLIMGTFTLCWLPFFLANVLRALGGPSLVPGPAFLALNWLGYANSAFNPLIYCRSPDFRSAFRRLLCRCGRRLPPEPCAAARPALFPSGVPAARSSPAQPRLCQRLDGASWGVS
Mitogen-activated protein kinase 3, sequence (P27361 whole entry): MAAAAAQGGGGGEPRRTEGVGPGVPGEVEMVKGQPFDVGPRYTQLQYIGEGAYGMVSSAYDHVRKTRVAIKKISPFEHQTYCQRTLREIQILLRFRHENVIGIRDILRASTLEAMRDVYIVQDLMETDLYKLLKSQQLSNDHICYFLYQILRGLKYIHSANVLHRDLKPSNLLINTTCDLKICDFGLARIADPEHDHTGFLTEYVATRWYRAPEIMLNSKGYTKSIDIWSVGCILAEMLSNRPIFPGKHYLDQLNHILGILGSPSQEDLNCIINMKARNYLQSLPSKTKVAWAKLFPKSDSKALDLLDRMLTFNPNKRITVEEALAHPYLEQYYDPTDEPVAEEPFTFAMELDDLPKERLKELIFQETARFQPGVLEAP

CN1C[C@H](C(=O)N[C@]2(C)O[C@@]3(O)[C@@H]4CCCN4C(=O)[C@H](Cc4ccccc4)N3C2=O)C=C2c3cccc4[nH]cc(c34)C[C@H]21 [ERGOTAMINE]
pIC50 ([1]; read-out: IC50): 8.09
pKi ([1]; read-out: Ki): 8.34
pIC50 ([2]; read-out: IC50): 7.31
pKi ([2]; read-out: Ki): 7.62
IC50 [3]: Not Active
pIC50 ([4]; read-out: IC50): 8.46
pKi ([4]; read-out: Ki): 8.66
IC50 (Vasopressin V1a receptor): Not Active
IC50 [5]: Not Active
Ki [5]: Not Active
IC50 [6]: Not Active
Ki [6]: Not Active
IC50 [7]: Not Active
IC50 [8]: Not Active
IC50 [9]: Not Active
pIC50 ([10]; read-out: IC50): 5.19
IC50 (Glucocorticoid receptor): Not Active

Nc1nc2c(ncn2COC(CO)CO)c(=O)[nH]1 [GANCICLOVIR]
IC50 [1]: Not Active
IC50 [2]: Not Active
IC50 [3]: Not Active
IC50 [4]: Not Active
IC50 (Vasopressin V1a receptor): Not Active
IC50 [5]: Not Active
Ki [5]: Not Active
IC50 [6]: Not Active
Ki [6]: Not Active
IC50 [7]: Not Active
IC50 [8]: Not Active
IC50 [9]: Not Active
IC50 [10]: Not Active
IC50 (Glucocorticoid receptor): Not Active

CNC(=O)Oc1ccc2c(c1)[C@]1(C)CCN(C)[C@@H]1N2C [PHYSOSTIGMINE]
IC50 [1]: Not Active
IC50 [2]: Not Active
IC50 [3]: Not Active
IC50 [4]: Not Active
IC50 (Vasopressin V1a receptor): Not Active
IC50 [5]: Not Active
Ki [5]: Not Active
IC50 [6]: Not Active
Ki [6]: Not Active
IC50 [7]: Not Active
IC50 [8]: Not Active
IC50 [9]: Not Active
IC50 [10]: Not Active
IC50 (Glucocorticoid receptor): Not Active

C=C1[C@@H]2CCC3[C@@](CC[C@@H]4[C@H](C(=O)O)C[C@@H](O[C@@H]5O[C@H](CO)[C@@H](OS(=O)(=O)[O-])[C@H](OS(=O)(=O)[O-])[C@H]5OC(=O)CC(C)C)C[C@@]34C)(C2)[C@@H]1O.[K+].[K+] (some centres undefined) [ATRACTYLOSIDE]
IC50 [1]: Not Active
IC50 [2]: Not Active
IC50 [3]: Not Active
IC50 [4]: Not Active
IC50 (Vasopressin V1a receptor): Not Active
IC50 [5]: Not Active
Ki [5]: Not Active
IC50 [6]: Not Active
Ki [6]: Not Active
IC50 [7]: Not Active
IC50 [8]: Not Active
IC50 [9]: Not Active
IC50 [10]: Not Active
IC50 (Glucocorticoid receptor): Not Active

O=C1NC(=O)C(c2ccccc2)(c2ccccc2)N1 [PHENYTOIN]
IC50 [1]: Not Active
IC50 [2]: Not Active
IC50 [3]: Not Active
IC50 [4]: Not Active
IC50 (Vasopressin V1a receptor): Not Active
IC50 [5]: Not Active
Ki [5]: Not Active
IC50 [6]: Not Active
Ki [6]: Not Active
IC50 [7]: Not Active
IC50 [8]: Not Active
IC50 [9]: Not Active
IC50 [10]: Not Active
IC50 (Glucocorticoid receptor): Not Active

O=C1OC2(c3ccc(O)cc3Oc3cc(O)ccc32)c2ccccc21 [FLUORESCEIN]
IC50 [1]: Not Active
IC50 [2]: Not Active
IC50 [3]: Not Active
IC50 [4]: Not Active
IC50 (Vasopressin V1a receptor): Not Active
IC50 [5]: Not Active
Ki [5]: Not Active
IC50 [6]: Not Active
Ki [6]: Not Active
IC50 [7]: Not Active
IC50 [8]: Not Active
IC50 [9]: Not Active
IC50 [10]: Not Active
IC50 (Glucocorticoid receptor): Not Active

Cc1c(-c2ccccc2)oc2c(C(=O)OCCN3CCCCC3)cccc2c1=O [FLAVOXATE]
IC50 [1]: Not Active
IC50 [2]: Not Active
IC50 [3]: Not Active
IC50 [4]: Not Active
IC50 (Vasopressin V1a receptor): Not Active
IC50 [5]: Not Active
Ki [5]: Not Active
IC50 [6]: Not Active
Ki [6]: Not Active
IC50 [7]: Not Active
IC50 [8]: Not Active
IC50 [9]: Not Active
IC50 [10]: Not Active
IC50 (Glucocorticoid receptor): Not Active

C=C1CC[C@H](O)C/C1=C/C=C1\CCC[C@]2(C)[C@@H]([C@H](C)/C=C/[C@H](C)C(C)C)CC[C@@H]12 [ERGOCALCIFEROL]
IC50 [1]: Not Active
IC50 [2]: Not Active
IC50 [3]: Not Active
IC50 [4]: Not Active
IC50 (Vasopressin V1a receptor): Not Active
IC50 [5]: Not Active
Ki [5]: Not Active
IC50 [6]: Not Active
Ki [6]: Not Active
IC50 [7]: Not Active
IC50 [8]: Not Active
IC50 [9]: Not Active
IC50 [10]: Not Active
IC50 (Glucocorticoid receptor): Not Active

NCC1(CC(=O)O)CCCCC1 [GABAPENTIN]
IC50 [1]: Not Active
IC50 [2]: Not Active
IC50 [3]: Not Active
IC50 [4]: Not Active
IC50 (Vasopressin V1a receptor): Not Active
IC50 [5]: Not Active
Ki [5]: Not Active
IC50 [6]: Not Active
Ki [6]: Not Active
IC50 [7]: Not Active
IC50 [8]: Not Active
IC50 [9]: Not Active
IC50 [10]: Not Active
IC50 (Glucocorticoid receptor): Not Active

From ChEMBL document CHEMBL1909046, “DrugMatrix in vitro pharmacology data”
